# Patent publication US8846627B2, “Method for treatment of malaria” (The Second Military Medical University, priority 2009, dated 2014)
# Where two headings read alike, the source gives them in different places.
# Assays:
# [1] = molecular target: T1, Falcipain-2 protease (FP-2) (Plasmodium falciparum, UniProt Q8I6U4); assay: Falcipain-2 protease inhibition assay (fluorescence reaction rate); format: biochemical; settings: for inhibition at 10 µM: 10 μM compound, pH 5.5; for IC50: pH 5.5, sigmoidal fit, read-out: IC50 against falcipain-2
# T1 construct: The falcipain-2 fragment was amplified by the polymerase chain reaction (PCR); His6 (N-terminal MRGS-His6 supplied by the pQE-30 vector; own knowledge of the vector, consistent with the Ni2+-NTA purification) (N); made in house; host or cells: E. coli M15
# T1 sequence (Q8I6U4 244-484): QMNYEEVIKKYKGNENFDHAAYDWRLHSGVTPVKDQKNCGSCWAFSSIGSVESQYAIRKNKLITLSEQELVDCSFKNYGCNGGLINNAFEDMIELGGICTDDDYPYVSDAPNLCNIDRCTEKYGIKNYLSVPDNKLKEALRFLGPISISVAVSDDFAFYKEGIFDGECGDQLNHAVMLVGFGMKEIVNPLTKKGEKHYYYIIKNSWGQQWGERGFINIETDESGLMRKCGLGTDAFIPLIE
# Method: (1) Expression and Purification of Falcipain-2 and Refolding of FP-2 Inclusion Bodies Protein
# (2) The Determination of the Invention Compounds' Inhibitory Activity Against FP-2
# FP-2 protein and test compounds dissolved in DMSO (prepared from EXAMPLES 1-4) were added to 197 μL, buffer, containing 100 mM NaOAc, 10 mM DTT, pH 5.5 (final concentration 10 μg/mL). The test compound were Stenopalustroside A, Stenopalustroside D, Tiliroside, kaempferol 3-O-β-(6″-caffeoylglucoside) and kaempferol 3-(2,4-di-E-p-coumaroyl-rhamnoside), respectively, which final concentration were 10 μM and 0 μM (as negative control). These compounds were incubated for […] and employed MD SpectraMax M5 Microplate Reader to continuous detect the RFU for 15 min, at excitation 355 nm and emission 460 nm Calculate the reaction rate Km, and obtain percentage inhibitory rate of the test compound at 10 μM by the following equation,
# The equation is: (Kmof control group−Kmof experimental group)/Kmof control group×100%
# Select […] compounds with over 50% inhibitory rate to detect IC50, and utilize the compound solutions prepared from EXAMPLE 1 to EXAMPLE 4, Stenopalustroside A, tiliroside kaempferol 3-O-β-(6″-caffeoylglucoside), and the experimental methods and system followed as EXAMPLE 6. According to FP-2 activity reaction rate Km with compounds at different concentrations, we can calculate the inhibitory rate of compounds against FP-2 at different concentration. The IC50 value was fitted with utilizing the Sigmoidal Equation by Origin software.
# [2] = tested on: chloroquine sensitive (D6) strain of P. falciparum; assay: In vitro anti-malarial activity assay (plasmodial LDH activity), D6 clone; format: cell-based; settings: Plasmodium falciparum, read-out: P. falciparum (D6 Clone) IC50
# Method: (§1) In vitro anti-malarial activity of the representative compounds was determined against chloroquine sensitive (D6) and chloroquine-resistant (W2) strains of P. falciparum.
# (§2) The anti-malarial activity was determined by measuring plasmodial LDH activity as described earlier (Jain, M.; Khan, S. I.; Tekwani, B. L.; Jacob, M. R.; Singh, S.; Singh, P. P.; Jain, R. Synthesis, anti-malarial, antileishmanial, and antimicrobial activities of some 8-quinolinamine analogues. Bioorg. Med. Chem. 2005, 13, 4458-4466). A suspension of red blood cells infected with D6 or W2 strains of P. falciparum (200 with 2% parasitemia and 2% hematocrit in RPMI 1640 medium supplemented with 10% human serum and 60 µg/mL Amikacin) was added to the wells of a 96-well plate containing 10 μL of serially diluted test samples. The plate was flushed with a gas mixture of 90% N2, 5% O2, and 5% CO2 and incubated at 37° C. for 72 h in a modular incubation chamber (Billups-Rothenberg, Calif.). Parasitic LDH activity was determined by using Malstat™ reagent (Flow Inc., Portland, Oreg.) according to the procedure of Makler and Hinrichs (M. T. Makler and D. J. Hinrichs, Measurement of the lactate dehydrogenase activity of Plasmodium falciparum as an assessment of parasitemia. J. Am. J. Trop. Med. Hyg. 1993, 48(2):205-210). Briefly, 20 μl, of the incubation mixture was mixed with 100 μL of the Malstat™ reagent and incubated at room temperature for 30 min Twenty microliters of a 1:1 mixture of NBT/PES (Sigma, St. Louis, Mo.) was then added and the plate was further incubated in the dark for 1 h. The reaction was then stopped by the addition of 100 μL of a 5% acetic acid solution. The plate was read at 650 nm. Artemisinin and chloroquine were included in each assay as the drug controls. IC50 values were computed from the dose-response curves. To determine the selectivity index of anti-malarial activity of compounds, their cytotoxicity in vitro to mammalian cells was also determined. The assay was performed in 96-well tissue culture-treated plates as described earlier (J. Mustafa, S. I. Khan, G. Ma, L. A. Walker and I. A. Khan, Synthesis and Anticancer Activities of Fatty Acid Analogs of Podophyllotoxin. Lipids. 2004, 39(2):167-172). Vero cells (monkey kidney fibroblasts) were seeded to the wells of 96-well plate at a density of 25,000 cells/well and incubated for 24 h. Samples at different concentrations were added and plates were again incubated for 48 h. The number of viable cells was determined by Neutral Red assay. IC50 values were obtained from dose-response curves. Doxorubicin was used as a positive control.
# [3] = tested on: chloroquine-resistant (W2) strain of P. falciparum; assay: In vitro anti-malarial activity assay (plasmodial LDH activity), W2 clone; format: cell-based; settings: Plasmodium falciparum, read-out: P. falciparum (W2 Clone) IC50
# Method: as §1, §2
# [4] = tested on: Plasmodium berghei (chloroquine sensitive strain); assay: In vivo anti-malarial activity, 4-day suppressive test in infected mice; settings: Swiss albino mice; for Day 4 % Suppression / Day 5 % Suppression / Day 6 % Suppression: intragastric
# Method: Tests were performed in a 4-day suppressive standard test using the methods of David, Thurston and Peters (David, A. F., Philip, J. R., Simon, L. C., Reto B., and Solomon N. Antimalarial drug discovery: Efficacy models for compound screening. Nature Reviews. 2004; 3: 509-520). The plasmodium species, that is most widely employed in rodent malaria parasite-Plasmodium berghei (chloroquine sensitive strain), was used to infect Swiss albino mice for a fourday suppressive test. The P. berghei was subsequently maintained in the laboratory by serial blood passage from mouse to mouse. For the study, a donor mouse with a rising parasitemia of 20% was sacrificed and its blood was collected in a slightly heparinized syringe from the auxiliary vessels. The blood was diluted with Trisodium Citrate (TC) medium so that each 0.2 ml contained approximately 107 infected red cells. Each animal received inoculums of about […], which is expected to produce a steadily rising infection in mice.
# Male Swiss albino mice were used. The mice were allowed to acclimatize to the laboratory environment under a controlled temperature of 20° C. and at optimum humidity for at least three days before being subjected to the experiments. All of the mice were divided into groups of six, and infected with malaria parasites.
# The infection of the recipient mice was initiated by needle passage of the above mentioned parasite preparation, from the donor to healthy test animals via an intraperitoneal route. Therefore, P. berghei infected red blood cells were intraperitoneally injected into the mice from the blood diluted with TC medium so that each 0.2 ml had approximately 106-107 infected red cells (parasite per kg of body weight). Each mouse was infected with single inoculums of 0.2 ml blood.
# The 4-day procedures were started on Mondays while blood smears for parasitemia were collected on Fridays. The infected mice were weighed, randomly divided into treatment, vehicle and standard drug groups. […] The compounds were administered through intra gastric route using the stomach tube to ensure the safe ingestion of the compounds and the vehicle.
# Thin smears of blood films were obtained from the peripheral blood on the tail from each mouse on day four after infection. The smears were placed on microscopic slides, fixed with methanol and stained with Gemsa at pH 7.2, for parasitemia. […] The number of parasitized erythrocytes in each of the 10-50 such fields were counted three times and the average was calculated to give the Parasitemia of each individual animal. Percentage of suppression was calculated by using the following formula. % Suppression=(Parasitemia in negative control−Parasitemia in study group)/Parasitemia in negative control
# [5] = D6, 72 h incubation, LDH readout
# [6] = W2, 72 h incubation, LDH readout
Structure (SMILES),inhibition at 10 µM [1] [%],IC50 [1] [µM],"IC50 [2, 5] [µM]","IC50 [3, 6] [µM]",Day 4 % Suppression ([4]; 200 mg/kg daily for 4 days) [%],Day 5 % Suppression ([4]; 200 mg/kg daily for 4 days) [%],Day 6 % Suppression ([4]; 200 mg/kg daily for 4 days) [%],Day 4 % Suppression ([4]; 10 mg/kg daily for 4 days) [%],Day 5 % Suppression ([4]; 10 mg/kg daily for 4 days) [%],Day 6 % Suppression ([4]; 10 mg/kg daily for 4 days) [%],Day 4 % Suppression ([4]; 50 mg/kg daily for 4 days) [%],Day 5 % Suppression ([4]; 50 mg/kg daily for 4 days) [%],Day 6 % Suppression ([4]; 50 mg/kg daily for 4 days) [%],Day 4 % Suppression ([4]; 100 mg/kg daily for 4 days) [%],Day 5 % Suppression ([4]; 100 mg/kg daily for 4 days) [%],Day 6 % Suppression ([4]; 100 mg/kg daily for 4 days) [%],Day 5 % Suppression ([4]; 400 mg/kg daily for 4 days) [%],also measured
O=C(/C=C\c1ccc(O)cc1)OCC1O[C@@H](Oc2c(-c3ccc(O)cc3)oc3cc(O)cc(O)c3c2=O)C(O)[C@H](OC(=O)/C=C\c2ccc(O)cc2)[C@@H]1O (stereo partly shown) [Stenopalustroside A],53,1.45,32.8,98.6,34.7,33.3,18.9,,,,,,,,,,,
"CCN(CC)CCCC(C)Nc1ccnc2cc(Cl)ccc12 (stereo not shown) [Chloroquine, reference compound]",,,,,,,,100,100,100,,,,,,,,"IC50 ([2]; D6, 72 h): < 26.4 µM; IC50 ([3]; W2, 72 h): 160 µM"
O=C(/C=C/c1ccc(O)c(O)c1)OCC1O[C@@H](Oc2c(-c3ccc(O)cc3)oc3cc(O)cc(O)c3c2=O)C(O)C(O)[C@@H]1O (stereo partly drawn) [kaempferol 3-O-β-(6″-caffeoylglucoside)],53,13.5,55.8,91.3,4.3,9.0,5.4,20.6,27.2,37.8,52.1,54.5,45.9,13.0,15.1,10.8,6.0,
"CC1O[C@@H](Oc2c(-c3ccc(O)cc3)oc3cc(O)cc(O)c3c2=O)C(OC(=O)/C=C/c2ccc(O)cc2)C(O)[C@H]1OC(=O)/C=C/c1ccc(O)cc1 (stereo partly shown) [kaempferol 3-(2,4-di-E-p-coumaroyl-rhamnoside)]",49.4,,45.1,147,,9.0,5.4,,,,34.7,24.2,29.7,13.0,21.2,24.3,,
"C[C@@H]1CC[C@H]2[C@@H](C)C(=O)O[C@@H]3O[C@@]4(C)CC[C@@H]1[C@]32OO4 [Artemisinine, reference compound]",,,< 26.4,< 26.4,,,,,,,,,,,,,,
O=C(/C=C\c1ccc(O)cc1)OCC1O[C@@H](Oc2c(-c3ccc(O)cc3)oc3cc(O)cc(O)c3c2=O)C(O)[C@H](OC(=O)/C=C/c2ccc(O)cc2)[C@@H]1O (stereo partly shown) [Stenopalustroside D],39.4,,68.4,165,43.4,42.4,37.8,30.4,51.5,32.4,60.8,63.6,58.3,56.5,60.6,45.9,24.2,Day 4 % Suppression ([4]; 400 mg/kg daily for 4 days): 8.6%; Day 6 % Suppression ([4]; 400 mg/kg daily for 4 days): 13.5%; maximum suppression ratio ([4]; maximum over doses and days): 60%
